Results from US20080004290A1, “Anti-Cancer Agents” (THE UNIVERSITY OF QUEENSLAND, priority 2003, published 2008).
Read-outs that look alike come from different tables or passages of the source.

Columns and labels:
SkMel28 melanoma cells = assay: Cell survival assay (SRB); format: cell-based, human
Summary of the method: (§1)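 SRB absorbance at 564 nm measured surviving cell protein. Compound exposure lasted 24 h, followed by replacement with fresh medium and 72 h regrowth. Cells (5×10^3/well) were cultured in RPMI 1640/10% heat-inactivated FCS at 37° C, 5% CO2.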

DO4 melanoma cells = assay: Cell survival assay (SRB); format: cell-based, human
Summary of the method: as §1

D11 melanoma cells = assay: Cell survival assay (SRB); format: cell-based, human
Protocol: (§2) Cell Lines and Culture Medium. All cell lines used in this study have been described previously (Parsons et al., 1986; Todaro et al., 1980; Glenn et al., 2004). All cell lines were cultured in 10% heat-inactivated foetal calf serum (CSL, Australia) in RPMI 1640 medium supplemented with 100 U/mL penicillin, 100 μg/mL streptomycin, and 3 mM HEPES at 5% CO2, 99% humidity at 37° C. Primary human fibroblasts were obtained from neonatal foreskins and cultured in the above medium. Routine mycoplasma tests were performed using Hoechst stain^i and were always negative.
(§3) Cell Survival Assay. Cells were plated into 96-well microtitre plates at 5×10^3 cells/well, and allowed to adhere overnight. Test compounds were added to culture medium at the indicated concentrations, and plates incubated in the above conditions for 24 hours. Following this incubation period, compounds and media were removed, and replaced with fresh culture medium. Cells were then grown for a further 72 hours before assay using sulforhodamine B (SRB; Sigma, St. Louis, Mo.) as previously described. Briefly, the culture medium was removed from the 96-well microtitre plates and the plates washed twice with phosphate buffered saline (PBS), before the cells were fixed with methylated spirits for 15 minutes. The plates were then rinsed with tap water and the fixed cells stained with 50 μL/well of SRB solution (0.4% sulforhodamine B (w/v) in 1% (v/v) acetic acid) over a period of 1 hour. The SRB solution was then removed from the wells and the plates rapidly washed two times with 1% (v/v) acetic acid. Protein bound dye was then solubilised with the addition of 100 μL of 10 mM unbuffered Tris, and incubated for 15 min at 25° C. Plates were then read at 564 nm on a VERSA max tunable microplate reader (Molecular Devices, Sunnyvale, Calif.).

D17 melanoma cells = assay: Cell survival assay (SRB); format: cell-based, human
Protocol: as §2, §3

MM470 melanoma cells = assay: Cell survival assay (SRB); format: cell-based, human
Protocol: as §2, §3

MM229 melanoma cells = assay: Cell survival assay (SRB); format: cell-based, human
Protocol: as §2, §3

Mel FH melanoma cells = assay: Cell survival assay (SRB); format: cell-based, human
Protocol: as §2, §3

Mel RM melanoma cells = assay: Cell survival assay (SRB); format: cell-based, human
Protocol: as §2, §3

D14 melanoma cells = assay: Cell survival assay (SRB); format: cell-based, human
Protocol: as §2, §3

A2058 cells = assay: Cell survival assay (SRB); format: cell-based, human
Protocol: as §2, §3

MM604 melanoma cells = assay: Cell survival assay (SRB); format: cell-based, human
Protocol: as §2, §3

AO7 RM cells = assay: Cell survival assay (SRB); format: cell-based, human
Protocol: as §2, §3

LSP M2 cells = assay: Cell survival assay (SRB); format: cell-based, human
Protocol: as §2, §3

AF-6 cells = assay: Cell survival assay (SRB); format: cell-based, human
Protocol: as §2, §3

MM329 melanoma cells = assay: Cell survival assay (SRB); format: cell-based, human
Protocol: as §2, §3

HeLa cells = assay: Cell survival assay (SRB); format: cell-based, human
Protocol: as §2, §3

MM96L melanoma cells = assay: Cell survival assay (clonogenic survival, SRB); format: cell-based, human
Summary of the method: (§4)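 Cells (5×10^3/well, RPMI 1640 with 10% FCS) treated 24 h with compound at 0.01-10 μg/mL, then washed and grown 72 h drug-free at 37 °C, 5% CO2. Survival read by SRB staining after methylated-spirit fixation, absorbance 564 nm.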

[1] = test system: NFF, neonatal foreskin fibroblasts; assay: Cell survival assay (clonogenic survival, SRB), normal cells; format: cell-based, human
Summary of the method: as §4

p21^WAF1/Cip1 (CDKN1A) = assay: Induction of p21 expression (semi-quantitative RT-PCR) in MM96L cells; format: cell-based, human; details: MM96L melanoma cells, 10 μg/ml, after 16 hrs treatment
Source text: Induction of p21 Expression. It has been postulated that histone acetylation is associated with activation of gene transcription. […] Possibly the best characterised gene to be induced following exposure to different HDAC inhibitors is that of the cyclin-dependent kinase inhibitor p21^WAF1/Cip1, which blocks cyclin-dependent kinase activity thereby causing cell-cycle arrest in G1. HDAC inhibitors are thought to act directly on the CDKN1A promoter rather than an upstream target. The HDAC inhibitor SAHA induces accumulation of acetylated histones in the chromatin associated with the CDKN1A gene, and this correlates with the observed increase in transcription. […]
Cell Treatment and Total RNA Isolation. […] RNA was analysed for sufficient quality by formamide agarose gel electrophoresis, and quantified by spectrophotometry.
p21 Expression. The semi-quantitative analysis of mRNA expression of p21^WAF1/Cip1 was carried out by RT-PCR. […] Products were analysed by agarose gel electrophoresis, and visualised on a UV light box. Product intensity was determined to increase linearly with number of cycles and amount of mRNA used, by densitometric analysis using ImageQuaNT 4.2 software (Molecular Dynamics, Sunnyvale, Calif.). Quantitation of p21^WAF1/Cip1 induction was also performed by densitometric analysis using ImageQuaNT 4.2 software following normalisation to GAPDH product intensity.

[2] = Oral bioavailability, plasma concentration after oral and intravenous administration; format: in vivo, Wistar rats; details: 5 mg/kg in 4:1 olive oil:DMSO, three rats starved prior to dosing
Protocol: FIG. 7. Oral Bioavailability. Time dependent plasma concentration of compound of example 24 after oral (top) and intravenous (bottom) administration at 5 mg/kg to each of three Wistar rats.
Compounds of the invention were examined to see whether this new series had the expected favorable properties for oral delivery. […] Compound 24 (Log D7.0 2.7) was administered intravenously and orally to rats. […] Neither vehicle nor fasting had any significant effects on these parameters.

[3] = test system: DU145 prostate cancer cells; assay: Cell survival assay (SRB); format: cell-based, human; details: Table 10; standard deviations in parentheses; read-out: Cell line IC50 (μM) DU145
Summary of the method: as §1

[4] = test system: MCF-7 breast cancer cells; assay: Cell survival assay (SRB); format: cell-based, human; details: Table 10; standard deviations in parentheses; read-out: Cell line IC50 (μM) MCF7
Summary of the method: as §1

JAM ovarian cancer cells = assay: Cell survival assay (SRB); format: cell-based, human; details: Table 10; standard deviations in parentheses; read-out: Cell line IC50 (μM) JAM
Summary of the method: as §1

[5] = test system: CI-80-13S ovarian cancer cells; assay: Cell survival assay (SRB); format: cell-based, human; details: Table 10; standard deviations in parentheses; read-out: Cell line IC50 (μM) C18013S
Summary of the method: as §1

[6] = Table 11, IC50 (NFF)/IC50(cancer cell line)
[7] = Homo sapiens, Table 11, antiproliferative potency

CN(C)c1ccc(C(=O)N[C@@H](CCCCCC(=O)NO)C(=O)NCc2ccccc2)cc1 (racemic) [Example 124]
IC50 (SkMel28 melanoma cells; Homo sapiens, SK-MEL-28, Table 11, antiproliferative potency, read-out: IC50 (μM) SK Mel 28): 0.06 ± 0.04 µM | Selectivity SK Mel 28 (SkMel28 melanoma cells; [6]): 15 | IC50 (DO4 melanoma cells; Homo sapiens, DO4, Table 11, antiproliferative potency, read-out: IC50 (μM) DO4): 0.12 ± 0.03 µM | Selectivity DO4 (DO4 melanoma cells; [6]): 7 | IC50 (D11 melanoma cells; [7]): 0.3 ± 0.2 µM | Selectivity D11 (D11 melanoma cells; [6]): 3 | IC50 (D17 melanoma cells; Homo sapiens, D17, Table 11, antiproliferative potency): 0.06 ± 0.02 µM | Selectivity D17 (D17 melanoma cells; [6]): 15 | IC50 (MM470 melanoma cells; [7]): 0.09 ± 0.07 µM | Selectivity MM470 (MM470 melanoma cells; [6]): 10 | IC50 (MM229 melanoma cells; [7]): 0.6 ± 0.08 µM | Selectivity MM229 (MM229 melanoma cells; [6]): 1.5 | IC50 (Mel FH melanoma cells; [7]): 0.08 ± 0.04 µM | Selectivity Mel FH (Mel FH melanoma cells; [6]): 11 | IC50 (Mel RM melanoma cells; [7]): 0.95 ± 0.07 µM | Selectivity Mel RM (Mel RM melanoma cells; [6]): 0.9 | IC50 (D14 melanoma cells; [7]): 0.26 ± 0.08 µM | Selectivity D14 (D14 melanoma cells; [6]): 3 | IC50 (A2058 cells; Homo sapiens, A2058, Table 11, antiproliferative potency): 0.1 ± 0.02 µM | Selectivity A2058 (A2058 cells; [6]): 9 | IC50 (MM604 melanoma cells; [7]): 0.01 ± 0.01 µM | Selectivity MM604 (MM604 melanoma cells; [6]): 87 | IC50 (AO7 RM cells; [7]): 0.18 ± 0.07 µM | Selectivity AO7 RM (AO7 RM cells; [6]): 5 | IC50 (LSP M2 cells; [7]): 0.45 ± 0.05 µM | Selectivity LSP M2 (LSP M2 cells; [6]): 2 | IC50 (AF-6 cells; [7]): 0.3 ± 0.03 µM | Selectivity AF-6 (AF-6 cells; [6]): 3 | IC50 (MM329 melanoma cells; [7]): 0.06 ± 0.04 µM | Selectivity MM329 (MM329 melanoma cells; [6]): 15 | IC50 (HeLa cells; [7]): 0.09 ± 0.01 µM | Selectivity HeLa (HeLa cells; [6]): 10 | IC50 (MM96L melanoma cells; Homo sapiens, MM96L, MM96L melanoma, 24 h with compound, further 72 h growth, SRB, read-out: IC50 (uM) MM96L): 0.13 ± 0.02 µM | IC50 (MM96L melanoma cells; Homo sapiens, MM96L, Table 11, antiproliferative potency, read-out: IC50 (μM) MM96L): 0.13 ± 0.02 µM | IC50 (MM96L melanoma cells; Homo sapiens, MM96L, most preferred compounds, exemplary examples, read-out: potency of IC50 against the MM96 melanoma cells): ≤ 0.5 µM | SI (Selectivity Index = IC50 (NFF)/IC50 (MM96L)) (MM96L melanoma cells; NFF vs MM96L): 6.7 | Selectivity MM96L (MM96L melanoma cells; [6]): 6.7 | IC50 ([1]; Homo sapiens, Fibroblast, NFF normal fibroblasts, 24 h with compound, further 72 h growth, SRB, read-out: IC50 (uM) NFF): 0.87 ± 0.07 µM | IC50 ([1]; Homo sapiens, Fibroblast, Table 11, antiproliferative potency, read-out: IC50 (μM) NFF): 0.87 ± 0.07 µM

O=C(CCCSC[C@H](NC(=O)c1ccc(Br)cc1)C(=O)NCc1ccccc1)NO [Example 24]
Induction of mRNA for p21^WAF1/Cip1 (p21^WAF1/Cip1 (CDKN1A)): Induction of mRNA for p21^WAF1/Cip1 was seen | Tmax [2]: ~15 min | time for which high serum levels of drug were maintained [2]: > 4 h | Cmax ([2]; serum, preliminary study): ~6000 ng/mL | IC50 (SkMel28 melanoma cells; Table 10, standard deviations in parentheses, read-out: Cell line IC50 (μM) SkMel): 5.7 µM | IC50 (DO4 melanoma cells; Table 10, standard deviations in parentheses, read-out: Cell line IC50 (μM) DO4): 3.5 µM | IC50 [3]: 3.8 µM | IC50 [4]: 1.16 µM | IC50 (JAM ovarian cancer cells): 2 µM | IC50 [5]: 1.5 µM | IC50 (MM96L melanoma cells; Table 10, standard deviations in parentheses, read-out: Cell line IC50 (μM) MM96L): 0.2 µM | IC50 ([1]; Table 10, standard deviations in parentheses, read-out: Cell line IC50 (μM) NFF): 0.83 µM
